Data from US20050172344A1, “Cell cultures from animal models of Alzheimer's disease for screening and testing drug efficacy” (priority 2002, published 2005).

What was measured:
Format in all cases: cell-based, mouse
[1] = tested on: cultured murine hippocampal neurons; assay: evoked EPSCs and tetanus-induced potentiation in cultured neurons; conditions: for effect on EPSC amplitude (in words): evoked EPSCs, FIG. 2B
[2] = tested on: cultured hippocampal neurons from WT mice; assay: basal mEPSC frequency (spontaneous neurotransmitter release), whole cell patch clamp, WT cultures
[3] = tested on: cultured hippocampal neurons from WT mice; assay: glutamate-induced increase of mEPSC frequency, WT cultures
[4] = tested on: cultured hippocampal neurons from WT mice; assay: immunocytochemistry: synapsin I- and synaptophysin-immunoreactive puncta, WT cultures
Description: Glutamate in Mg^2+-free bath solution, or normal bath solution (control) was added directly to the culture dish and washed out after approximately 1 min by exchanging the solution with phosphate-buffered saline (PBS), (pH 7.4) 2 times. The cultures were fixed starting approximately 30 min after the application of glutamate, or control solution. The cultures were incubated overnight with affinity-purified rabbit anti-synapsin I (Molecular Probes) diluted 1:200. The secondary antibody was goat anti-rabbit labeled with Rhodamin Red diluted 1:500 in 4% goat serum in PBS. Cells were mounted in Vectashield (Vector Labs) and examined by confocal microscope (Nikon D-Eclipse C1). The cells were excited using the 568 nm lines of a krypton-argon laser to image Cy3. Kalman averages of 4 scans were collected for each image. Ten neurons in each culture dish were selected at random and analyzed by an observer who was blind to the experimental treatment. Fields with roughly equal densities of neurites were chosen for analysis. Synapsin I clusters in a representative field (94×142 μm) around the neuron were quantified using a computer program NIH Image (v. 1.61). Individual clusters were identified based on having a fluorescence intensity that exceeded a threshold set above background and a diameter between 0.5 and 5 μm. For all measures, the mean result from the 10 neurons in the dish was normalized to the mean from control dishes in the same culture batch because variability between different culture batches was greater than between dishes in the same batch. FIG. 7 illustrates the effects of glutamate on the number of synapsin I-immunoreactive clusters in WT and mAPP/mPS1 cell cultures. Synapsin I-immunoreactive clusters are more numerous in glutamate-exposed than control cell WT cultures (FIGS. 7A, 7B).
In light of the microstructural changes involving synapsin I and synaptophysin in cultures from transgenic animals, we also tested whether these changes could be induced by the exogenous application of Aβ. […] We next tested whether the number of synapsin I- and synaptophysin-immunoreactive puncta was increased after glutamate application in Aβ-treated cultures. […] These findings indicate that Aβ can produce coordinate changes in the distribution and/or expression of presynaptic proteins.
Aβ preparation: Oligomeric Aβ42 was prepared as previously described (Stine et al., 2003). Briefly, the lyophilized peptide (American Peptide) was re-suspended in 100% 1,1,1,3,3,3-hexafluoro-2-propanol (HFIP; Sigma). The solution was aliquoted and the HFIP was allowed to evaporate in the fume hood. The resulting clear peptide films were dried under vacuum in a SpeedVac and stored at −20° C. Twenty-four hours prior to use, the aliquots were added dimethylsulfoxide (DMSO) (Sigma) and sonicated for 10 minutes. Oligomeric Aβ42 was obtained by diluting Aβ42-DMSO into cell culture media, vortexed for 30 seconds and incubated at 4° C. for 24 hours until the use. To induce plasticity 200 μM glutamate in a Mg^2+-free solution was added for ˜30 sec.

[5] = tested on: cultured hippocampal neurons from WT mice; assay: FM 1-43 vesicle cycling: number of active presynaptic boutons, WT cultures
Description: Cationic styrylpyridinium dye FM 1-43 has become an established tool for identifying actively firing neurons and for investigating the mechanisms of activity-dependent vesicle cycling in widely different species. These water soluble dyes, which are non-toxic to cells virtually nonfluorescent in aqueous medium, become internalized within recycled synaptic vesicles and the nerve terminals become brightly stained. The amount of FM 1-43 taken up per vesicle by endocytosis equals the amount of dye released upon exocytosis.
One of the methods to induce exocytosis/endocytosis in the neuronal culture is by perfusion of the hyperkalemic solution. […] The perfusion solution is then changed back to normal bath solution for 10 minutes to wash off the dye from the external medium. ADVASEP-7 (1 mM, CyDex, Inc., Overland Park, Kans.), an anionic cyclodextrin complexing agent is introduced for 60 seconds in the washing bath solution at 1 and 6 minutes of washing for enhanced removal of the dye from the external medium (FIG. 6A). After 10 min wash period, which is sufficient for the complete recycling and repriming of the dye-stained population of synaptic vesicles, an image was then taken to record the loading of FM 1-43 in the synaptic boutons. The culture is then exposed to multiple 15 seconds application of hyperkalemic bath solution (without FM 1-43) to evoke repeated cycles of exocytosis, which facilitate release of the dye from the vesicles. An image is taken after 30 minutes of repeated cycles of exocytosis and washing with normal bath solution. The difference between the images before and after multiple exposures to hyperkalemic solution gives the measure of FM 1-43 stained vesicles.
To study glutamate-induced presynaptic plasticity changes, the culture is exposed to glutamate (200 μM) in Mg^2+ free bath solution for 30 seconds and then washed out in approximately 1 minute. After 30 minutes of glutamate exposure, the staining and destaining procedure is repeated. NMDA receptor antagonist, d-AP5 (40 μM) and non-NMDA receptor antagonist, CNQX (20 μM) are included in the hyperkalemic solution to block possible recurrent excitation and induction of activity-dependent plasticity. All images were acquired using Nikon D-Eclipse C1 confocal microscope. Cultures were viewed with 60×/1.2 nA water immersion objective. An investigator blinded to experimental conditions obtained quantitative data using NIH Image (v. 1.61). For each image, the intensity of individual puncta and total number of puncta was assessed. FIG. 6B illustrates exemplary cycling vesicles before and after glutamate exposure in cell cultures from wild type (WT) and mAPP/mPS1 littermates. A brief application of glutamate produces enhancement of cycling vesicles in WT but not mAPP/mPS1 cell cultures (FIG. 6C).
Another finding on cell cultures from transgenic mouse models of Alzheimer's disease is represented by the increase in basal number of functional presynaptic release sites as well as the lack of the glutamate-induced increase in number of functional presynaptic release sites. These tests were performed using FM 1-43. Therefore, we also tested whether these phenomena occurred in non transgenic cultures following exposure to exogenous oligomeric Aβ. […] Brief application (˜30 sec) of 200 μM glutamate in Mg^2+ free medium caused a significant increase in number of active boutons in cultures from vehicle-treated WT animals (269.70±33.12%, n=6, p<0.001, one way ANOVA) ) (FIG. 12B). […]

[6] = tested on: cultured hippocampal neurons from double transgenic mAPP/mPS1 mice; assay: basal mEPSC frequency (spontaneous neurotransmitter release), whole cell patch clamp, mAPP/mPS1 cultures
[7] = tested on: cultured hippocampal neurons from double transgenic mAPP/mPS1 mice; assay: glutamate-induced enhancement of mEPSC frequency (synaptic plasticity), mAPP/mPS1 cultures
[8] = Aβ42-treated cultures fixed 30 minutes after 200 μM glutamate application
[9] = WT cultures, 200 pM oligomeric Aβ42 for 24 hours vs vehicle-treated

N[C@@H](CCCP(=O)(O)O)C(=O)O [APV]
effect on potentiation of EPSC by high frequency stimulation (in words) ([1]; 100 Hz tetani, extracellular application, FIG. 2C): blocked | effect on EPSC amplitude (in words) [1]: reduces the amplitude of the EPSCs

N#Cc1cc2[nH]c(=O)c(=O)[nH]c2cc1[N+](=O)[O-] [CNQX]
effect on EPSC amplitude (in words) [1]: blocks the remaining part of the EPSC

oligomeric Aβ42: lyophilized β-amyloid 42 peptide (American Peptide) treated with HFIP and DMSO, then diluted into culture media to form oligomers
effect on basal frequency of spontaneous release of neurotransmitter (in words) ([2]; FIG. 11A): increases | mEPSC amplitude vs vehicle-treated cultures (in words) ([2]; WT cultures, 200 pM oligomeric Aβ42 for 24 hours): did not find any difference | basal frequency of spontaneous release of neurotransmitter ([2]; WT cultures, 200 pM oligomeric Aβ42 for 24 hours, n=8): 671.46 ± 48.28 min⁻¹ | effect on glutamate-induced mEPSC frequency increase (in words) ([3]; FIG. 11B): blocks | mEPSC frequency after glutamate ([3]; WT cultures, 200 pM Aβ42 for 24 hours, 45 min after 200 μM glutamate, n=10): 104.43±3.05 % of pre values | basal mEPSC frequency with vehicle added instead of glutamate ([3]; WT cultures, Aβ-treated, vehicle instead of glutamate, n=8): 112.00±11.34 % of pre values | mEPSC amplitude after glutamate treatment (in words) ([3]; cultures treated with Aβ): did not produce any change | number of synapsin I-immunoreactive puncta after glutamate [4, 8]: 111.55±8.97% | number of synaptophysin-immunoreactive puncta after glutamate [4, 8]: 115.48±5.76% | effect on basal number of synapsin I- and synaptophysin-immunoreactive puncta (in words) ([4]; FIG. 13A): increases | effect on glutamate-induced increase in synapsin I- and synaptophysin-immunoreactive puncta (in words) ([4]; FIG. 13B): blocks | basal number of synapsin I immunoreactive puncta [4, 9]: 1155.53±6.78 % of control | basal number of synaptophysin immunoreactive puncta [4, 9]: 146.13±6.15% | mean fluorescence intensity of the labeled boutons (in words) ([5]; Aβ-treated cultures): did not find any change | number of active boutons after glutamate ([5]; Aβ-treated cultures, ~30 sec 200 μM glutamate in Mg2+ free medium, n=8): 86.80±4.6 % increase | effect on basal number of active presynaptic boutons (in words) ([5]; FIG. 12A): increases | effect on glutamate-induced increase in the number of active boutons (in words) ([5]; FIG. 12B): blocks | basal number of active boutons ([5]; WT cultures treated for 24 hrs with Aβ42, n=15): 38.15±3.6 boutons/unit length of neurite

CC(C)C[C@H](NC(=O)[C@H]1O[C@@H]1C(=O)O)C(=O)NCCCCN=C(N)N [E64]
basal mEPSC frequency ([6]; mAPP/mPS1 cultures treated with E64 1 μM added daily to culture medium): 435 events/minute | effect on basal mEPSC frequency (in words) ([6]; mAPP/mPS1 cultures, E64 for 3 to 4 days, FIG. 4): re-established normal mEPSC frequency | basal mEPSC frequency ([2]; WT cultures treated with E64 1 μM added daily): 332 events/minute | mEPSC frequency after glutamate (synaptic plasticity) ([7]; mAPP/mPS1 cultures treated with E64, 45 minutes after application of glutamate, n=6): 346.44±41% | effect on synaptic plasticity (in words) ([7]; mAPP/mPS1 cultures, glutamate-induced mEPSC enhancement, FIG. 5): re-established normal synaptic plasticity
